Data from patent publication US7078385B2, “Methods of inhibiting angiogenesis with fragments and homologs of troponin subunit I” (Boston Life Sciences, Inc., priority 1996, dated 2006).
No end group written: not given here.

Experiments:
[1] = system: bFGF-stimulated capillary EC; assay: Inhibition of bFGF-stimulated capillary EC proliferation by fragments of troponin I (Example 13, Table 2); type: cell-based, bovine; conditions: for IC50: read-out: Approx. IC50
Experimental: On day one, 5,000 bovine capillary endothelial cells in DMEM/10% CS/1% GPS are plated onto each well of a 96-well pregelatinized tissue culture plate. On day two, the cell media is changed to DMEM, 2% CS, 1% GPS, 0.5% BSA (complete medium), supplemented with 10 μl of 1 mg/ml “cold” thymidine per 50 ml of medium. On day three, test samples in complete medium are added in duplicate. Additionally, […] (bFGF) is added to each well except for the appropriate controls, to a final concentration of 0.2 ng/well. On day four, 5 μl of 1:13 diluted ^3H-Thymidine stock is added to each well and the plate is incubated for 5–6 hours. Following incubation, the medium is aspirated, and the remainder is rinsed once with PBS, then twice for 5 minutes each with methanol followed by two rinses each for 10 minutes with 5% TCA. The cells are then rinsed with water three times, dried to the plate, and 100 μl of 0.3 N NaOH is added to each well. The contents of the well are then transferred to the scintillation counter vials and 3 mls of Ecolume added to each vial. Samples are then counted on the scintillation counter.
Recombinant peptides corresponding to fragments of rabbit (rb) TnI (SEQ ID NO:10) (FIG. 12) were tested for ability to inhibit bFGF-stimulated capillary EC as described above in Section 6, Examples 2 and 8. The rbTnI fragments (SEQ ID NOS:11–15) were prepared according to Jha et al., 1996, Biochemistry 35(34):11026–11035.

[2] = system: embryonic neovascularization of the chick chorioallantoic membrane; conditions: cited from earlier work; for Lowest reported dose effective as combination in the CAM assay: combined with hydrocortisone (60 μg)
[3] = system: bovine capillary endothelial cells (BCE), bFGF-stimulated; assay: bFGF-stimulated capillary endothelial cell proliferation, colorimetric acid phosphatase assay (Example 3); type: cell-based
Experimental: A quick and sensitive screen for inhibition of EC proliferation in response to treatment with a troponin subunit, homolog, or derivative of the invention involves incubating the cells in the presence of varying concentrations of the inhibitor and determining the number of endothelial cells in culture based on the colorimetric determination of cellular acid phosphatase activity, described by Connolly, et al., 1986, J. Anal. Biochem. 152:136–140.
The effect of troponin on the proliferation of capillary endothelial cells (EC) was measured in an assay which measures the ability of this protein to interfere with stimulation of endothelial cell proliferation by a known angiogenesis factor (bFGF).
Capillary endothelial cells and Balb/c 3T3 cells were separately plated (2×10^3/0.2 ml) onto gelatin-coated 96-well tissue culture dishes on day 1. On day 2, cells were refed with Dulbecco's modified Eagle's medium (Gibco) with 5% calf serum (Hyclone) (DMEM/5) and bFGF (10 ng/ml) (FGF Co.) and increasing concentrations of one or more troponin subunits. […] Wells containing phosphate buffered saline (PBS) (Gibco) alone and PBS+bFGF were included as controls. On day 5, media was removed and cells were washed with PBS and lysed in 100 μl of buffer containing 0.1 M sodium acetate (pH 5.5), 0.1% Triton X-100™ and 100 mM p-nitrophenyl phosphate (Sigma 104 phosphatase substrate). After incubation for 2 hours at 37° C., the reaction was stopped with the addition of 10 μl of 1 N NAOH. Color development was determined at 405 nm using a rapid microplate reader (Bio-Tek).
Percent inhibition was determined by comparing the cell number of wells exposed to stimulus with those exposed to stimulus and troponin subunits.

Molecule: 122–181: recombinant rabbit TnI fragment, C′ region, aa 122–181 (LKALLGSKHKVCMDLRANLKQVKKEDTEKERDLRDVGDWRKNIEEKSGMEGRKKMFESES; listed as Oryctolagus cuniculus)
- Approx. IC50 μg/well [1]: >0.3 μg/well
- % I (Percent Inhibition) of EC proliferation ([1]; 0.01 μg/well): −1%
- % I (Percent Inhibition) of EC proliferation ([1]; 0.025 μg/well): −6%
- % I (Percent Inhibition) of EC proliferation ([1]; 0.1 μg/well): 20%
- % I (Percent Inhibition) of EC proliferation ([1]; 0.3 μg/well): 23%
- IC50 [1]: > 200 nM

Molecule: B-cyclodextrin tetradecasulfate
- Lowest reported dose effective as combination in the CAM assay [2]: 14 µg

Molecule: CMDLRANL [134–141]
- Approx. IC50 μg/well [1]: 150 μg/well

Molecule: DAMLKALL [120–127]
- Approx. IC50 μg/well [1]: >>50 μg/well

Molecule: DLRANLKQ [136–143]
- Approx. IC50 μg/well [1]: >>50 μg/well

Molecule: DLRGKFKRPPLRRVRMSADA [102–121]
- Approx. IC50 μg/well [1]: >>20 μg/well

Molecule: EDMNQKLFDLRGKFKRPPLR [94–113]
- Approx. IC50 μg/well [1]: >>20 μg/well

Molecule: GSKHKVCM [128–135]
- Approx. IC50 μg/well [1]: 150 μg/well

Molecule: KALLGSKH [124–131]
- Approx. IC50 μg/well [1]: >>50 μg/well

Molecule: KFKRPPLRRVRMSADAMLKA [102–125]
- Approx. IC50 μg/well [1]: >>20 μg/well

Molecule: KHKVCMDL [130–137]
- Approx. IC50 μg/well [1]: 50 μg/well

Molecule: KLFDLRGKFKRPPLRRV [98–114]
- Approx. IC50 μg/well [1]: >>40 μg/well

Molecule: KVCMDLRA [132–139]
- Approx. IC50 μg/well [1]: 75 μg/well

Molecule: LLGSKHKV [126–133]
- Approx. IC50 μg/well [1]: >>50 μg/well

Molecule: MLKALLGS [122–129]
- Approx. IC50 μg/well [1]: >>50 μg/well

Molecule: PPLRRVRMSADAMLKALLGS [110–129]
- Approx. IC50 μg/well [1]: >>20 μg/well

Molecule: QKLFDLRGKFKRPPLRRVRM [98–117]
- Approx. IC50 μg/well [1]: >>20 μg/well

Molecule: RMSADAML [116–123]
- Approx. IC50 μg/well [1]: >>50 μg/well

Molecule: RVRMSADAMLKALLGSKHKV [114–133]
- Approx. IC50 μg/well [1]: >>20 μg/well

Molecule: SADAMLKA [118–125]
- Approx. IC50 μg/well [1]: >>50 μg/well

Molecule: SADAMLKALLGSKHKVCMDL [118–137]
- Approx. IC50 μg/well [1]: 40 μg/well

Molecule: Troponin C: troponin subunit C, calcium binding polypeptide of the troponin complex; human fast twitch sequence SEQ ID NO:1
- IC50 [3]: 278 nM
- Percent inhibition of BCE proliferation ([3]; 280 nM): 54%
- Percent inhibition of BCE proliferation ([3]; 1.4 μM): 86%
- Percent inhibition of BCE proliferation ([3]; 2.8 μM): 83%
- Percent inhibition of BCE proliferation ([3]; 5.6 μM (20 μg/well)): 100%

Molecule: Troponin T: troponin subunit T, tropomyosin binding polypeptide of the troponin complex; SEQ ID NO:3
- IC50 [3]: 2140 nM
- Percent inhibition of BCE proliferation ([3]; 1.6 μM): 23%
- Percent inhibition of BCE proliferation ([3]; 3.3 μM): 62%
- Inhibition of bFGF-stimulated EC proliferation (in words) ([3]; 1 and 5 μg/well): not

Molecule: heparin
- Lowest reported dose effective as combination in the CAM assay [2]: 50 µg

Molecule: protamine
- Reported dose of angiogenesis inhibitor tested alone in the CAM assay [2]: 50 µg

B1: 1–120: recombinant rabbit TnI fragment, N′ and inhibitory (I′) region, aa 1–120 (protein, listed as Oryctolagus cuniculus)
chain: GDEEKRNRAITARRQHLKSVMLQIAATELEKEEGRREAEKQNYLAEHCPPLSLPGSMAEVQELCKQLHAKIDAAEEEKYDMEIKVQKSSKELEDMNQKLFDLRGKFKRPPLRRVRMSADA
- Approx. IC50 μg/well [1]: >>0.3 μg/well
- % I (Percent Inhibition) of EC proliferation ([1]; 0.01 μg/well): 6%
- % I (Percent Inhibition) of EC proliferation ([1]; 0.025 μg/well): 0%
- % I (Percent Inhibition) of EC proliferation ([1]; 0.1 μg/well): 12%
- % I (Percent Inhibition) of EC proliferation ([1]; 0.3 μg/well): 17%
- IC50 [1]: > 100 nM

B2: 1–94: recombinant rabbit TnI fragment, amino-terminal (N′) region, aa 1–94 (protein, listed as Oryctolagus cuniculus)
chain: GDEEKRNRAITARRQHLKSVMLQIAATELEKEEGRREAEKQNYLAEHCPPLSLPGSMAEVQELCKQLHAKIDAAEEEKYDMEIKVQKSSKELED
- Approx. IC50 μg/well [1]: >0.3 μg/well
- % I (Percent Inhibition) of EC proliferation ([1]; 0.01 μg/well): −12%
- % I (Percent Inhibition) of EC proliferation ([1]; 0.025 μg/well): 6%
- % I (Percent Inhibition) of EC proliferation ([1]; 0.1 μg/well): 31%
- % I (Percent Inhibition) of EC proliferation ([1]; 0.3 μg/well): 28%
- IC50 [1]: > 100 nM

B3: 96–181: recombinant rabbit TnI fragment, carboxy terminus (C′) and I′ region, aa 96–181 (protein, listed as Oryctolagus cuniculus)
chain: NQKLFDLRGKFKRPPLRRVRMSADAMLKALLGSKHKVCMDLRANLKQVKKEDTEKERDLRDVGDWRKNIEEKSGMEGRKKMFESES
- % I (Percent Inhibition) of EC proliferation ([1]; 0.01 μg/well): 25%
- % I (Percent Inhibition) of EC proliferation ([1]; 0.025 μg/well): 28%
- % I (Percent Inhibition) of EC proliferation ([1]; 0.1 μg/well): 54%
- % I (Percent Inhibition) of EC proliferation ([1]; 0.3 μg/well): 48%

B4: platelet factor IV: previously described angiogenesis inhibitor (Taylor et al. 1982) (protein, UniProt P02776 32-101, looked up)
Platelet factor 4: EAEEDGDLQCLCVKTTSQVRPRHITSLEVIKAGPHCPTAQLIATLKNGRKICLDLQAPLYKKIIKKLLES
- Reported dose of angiogenesis inhibitor tested alone in the CAM assay [2]: 10 µg

B5: Troponin I: troponin subunit I, inhibitory polypeptide of the troponin complex; human fast twitch sequence SEQ ID NO:2 (protein, listed as Homo sapiens)
chain: MGDEEKRNRAITARRQHLKSVMLQIAATELEKEESRREAEKQNYLAEHCPPLHIPGSMSEVQELCKQLHAKIDAAEEEKYDMEVRVQKTSKELEDMNQKLFDLRGKFKRPPLRRVRMSADAMLKALLGSKHKVCMDLRANLKQVKKEDTEKERDLRDVGDWRKNIEEKSGMEGRKKMFESES
- IC50 [3]: 1140 nM
- Percent inhibition of BCE proliferation ([3]; 240 nM): 33%
- Percent inhibition of BCE proliferation ([3]; 1.2 μM (5 μg/well), 1.2 µM): 46%
- Percent inhibition of BCE proliferation ([3]; 1.2 μM (5 μg/well), listed as full-length TnI, 1.2 µM): approximately 46%
- Inhibition of bFGF-stimulated BCE proliferation (in words) ([3]; 10 μg/well): inhibition was not observed
